These results are taken from patent publication US12311033B2, “Lipid nanoparticle formulations and compositions” (CAPSTAN THERAPEUTICS, INC., priority 2023, dated 2025).

Data set [1] can be described thus: Time course of ionizable cationic lipid (LC-MS) and mRNA (digital PCR) in plasma, spleen, liver. In kind it is in vivo. The settings on record: mice; for plasma levels of lipid at 7 days: CD8-targeted tLNP F9 (CICL1) or BF1 (ALC-0315). As to the method:
To obtain more detailed data a similar experiment was conducted in mice where it was possible to obtain a time course of disappearance of the ionizable cationic lipid and the encapsulated mRNA as well. Mice were intravenously administered 2 mg/kg tLNP of composition BF1 (comprising ALC-0315) or F9 (comprising CICL1) targeted to mouse CD8 and encapsulating an anti-human CD19 CAR, and monitored through 7 days. At each timepoint, 3 mice were sacrificed, and liver, spleen, and plasma were processed for LC-MS-based detection of lipid concentration and digital PCR detection of the mRNA. In plasma, mRNA level was normalized to a known amount of mRNA spiked in a control. In spleen and liver mRNA level was normalized to mRNA for the housekeeping gene GAPDH.

Data set [2] can be described thus: Ionizable cationic lipid in plasma, liver and spleen 24 hours after tLNP, LC/MS/MS. In kind it is in vivo, cynomolgus macaques. On the procedure: Samples were taken from cynomolgus macaques that had been intravenously administered either BF1 or F5 tLNPs (two each) at a dosage of 3 mg mRNA/kg in the preceding example. The tLNPs were conjugated to anti-CD5 mentioned in Example 2 as the targeting moiety. 24 hours after administration the animals were sacrificed and plasma, liver, and spleen tissue collected from two animals in each group and assessed by mass spectrometry for presence of these ionizable cationic lipids in order to assess biodegradability and biodistribution of these ionizable cationic lipids.
Briefly, plasma was stabilized for mass spectrometry by addition of 10 μL of formic acid per mL of K2EDTA plasma. Spleen and liver tissue were homogenized in 19 parts of homogenization buffer (50:40:10 0.1% formic acid in 1:1 methanol: acetone/10 mM ammonium formate with 0.2% formic acid/dimethylformamide (DMF)) to 1 part tissue (v/w) using a Geno/Grinder® (SPEX® SamplePrep) set to two minutes at 1500 rpms.
Calibration curves and quality control samples were prepared by spiking control matrix (plasma or homogenate) with CICL1 or ALC-0315 in DMF. The extraction was performed on wet ice by adding 300 μL of crashing solvent (0.1% formic acid in 1:1 methanol: acetonitrile) to 25 μL of sample to which 50 μL of internal standard was added (1:1 isopropyl alcohol: water). The extracts were mixed for four minutes at 1500 rpms and then centrifuged at 3000×g for ten minutes. 200 μL of supernatant was transferred to a clean 96 well plate for LC/MS/MS analysis.
Chromatography was performed on a Waters XBridge BEH C8 column (130 Å, 2.5 μm, 2.1×30 mm) using the following gradient. Mobile phase A (10 mM ammonium format in water with 0.2% formic acid) was held at 20% for 0.3 minutes before being reduced to 5% over 1.2 minutes. This condition was held for one minute before being returned to 80% B (0.1% formic acid in 1:1 methanol: acetonitrile) in 0.1 minutes. The column was then held at 80% B for 1.4 minutes. LC flow rate was held at 0.5 mL/min and the autosampler held at 2-8° C. The mass spectrum was obtained with a triple quadrupole apparatus using atmospheric pressure ionization (Sciex).
Quantitation was performed using a 1/X2 quadratic regression using the peak area for transition 1013.6→968.4 (CICL1) or 766.6→748.4 (ALC-0315) over peak area of transition 1040.6→995.4 of the internal standard.

Data set [3] has as its target signal regulatory protein a (SIRPα) (Homo sapiens, UniProt P78324). The settings on record: reported in Rodriguez et al., 2013; cited from earlier work.
Where [4] appears, read: 24 hours after BF1 tLNP, 3 mg mRNA/kg.

signal regulatory protein a (SIRPα), sequence (P78324 31-504): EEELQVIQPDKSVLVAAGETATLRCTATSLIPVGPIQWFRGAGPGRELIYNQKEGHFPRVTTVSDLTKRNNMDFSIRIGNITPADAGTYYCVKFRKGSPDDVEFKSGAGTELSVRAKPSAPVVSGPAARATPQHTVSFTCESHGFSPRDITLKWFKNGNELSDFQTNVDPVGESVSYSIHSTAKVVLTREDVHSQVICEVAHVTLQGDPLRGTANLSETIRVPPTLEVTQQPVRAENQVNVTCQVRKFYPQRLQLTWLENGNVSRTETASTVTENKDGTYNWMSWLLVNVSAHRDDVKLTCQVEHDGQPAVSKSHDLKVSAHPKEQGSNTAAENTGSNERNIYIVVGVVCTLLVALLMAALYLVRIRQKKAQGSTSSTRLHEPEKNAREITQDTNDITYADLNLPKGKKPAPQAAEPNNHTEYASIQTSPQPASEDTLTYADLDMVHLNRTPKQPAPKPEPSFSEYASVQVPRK

`CCCCCCCCC(CCCCCC)C(=O)OCCCCCCN(CCCCO)CCCCCCOC(=O)C(CCCCCC)CCCCCCCC` (centres unmarked) [ALC-0315, [(4-Hydroxybutyl)azanediyl]di(hexane-6,1-diyl)bis(2-hexyldecanoate), reference compound]: in data set [1] (2 mg/kg i.v.), the “plasma levels of lipid at 7 days” value is reported as “still detected”. Besides, the “lipid levels in spleen and liver” value in data set [1] (2 mg/kg i.v., through 7 days) is on record as “remained almost unchanged throughout the 7 days”. For the same compound, in data set [2] (setting [4]), the “concentration in liver, fold greater (reference not given)” value is reported as “approximately 14 fold” and the “concentration in spleen, fold greater (reference not given)” value was approximately 11 fold. The “concentration in blood, fold greater than CICL1” value in data set [2] (24 hours after BF1 versus F5 tLNP, 3 mg mRNA/kg) was “about 6 fold”.
As to `CCCCCCCCC(=O)OCC(COC(=O)CCCCCCCC)CC(=O)OCCN(CCOC(=O)CC(COC(=O)CCCCCCCC)COC(=O)CCCCCCCC)C(=O)OCCN(C)C` [CICL1], in data set [1] (2 mg/kg F9 tLNP), the “time after administration by which lipid levels were falling in the liver” value was not above 2 h and the “time after administration by which lipid levels were falling in the spleen” value was not above 1 h. The “plasma levels of lipid at 7 days” value in data set [1] (2 mg/kg i.v.) is “returned to baseline”. Moreover, the “concentrations in blood, liver, and spleen relative to each other” value in data set [2] (24 hours after F5 tLNP, 3 mg mRNA/kg) is reported as not above 2 fold. Moreover, the “amount of lipid present in blood, liver, and spleen” value in data set [2] (24 hours after F5 tLNP, 3 mg mRNA/kg i.v.) is recorded as “only very small amounts”. In data set [2] (24 hours, 3 mg mRNA/kg), the “liver concentration, fold less than for ALC-0315” value is listed as “approximately 127 fold” and the “spleen concentration, fold less than for ALC-0315” value was approximately 35 fold. Besides, the biodegradability entry in data set [2] (clearance data, at least at the initial step) is reported as “much more biodegradable than ALC-0315”.
On to “NYTCEVTELSREGKTVIELK (SEQ ID NO: 3) [CD47 peptide]”, for which the “binding affinity to SIRPα, fold stronger than full-length CD47 protein” value in data set [3] was 10 fold.
